Assay results reported in ChEMBL document CHEMBL2086254, “Synthesis and identification of novel indolo[2,3-a]pyrimido[5,4-c]carbazoles as a new class of anti-cancer agents” (Eur J Med Chem, 2012).

Target: Cyclin-dependent kinase 2 (Homo sapiens, UniProt P24941)
Experiment: Inhibition of CDK2

With `Cn1c2ccccc2c2c3c(c4c5ccccc5n(CC(O)CO)c4c21)C(=O)NC3=O` (stereo unspecified) as the compound, how does the IC50 read?
Its IC50 is less than 60 nM.
